Assay results from PMC9365693 (Nature, 2022).
pKd: −log10 of the molar value. Where two headings read alike, the source gives them in different places.

Tests used:
[1] = Isothermal titration calorimetry (ITC), lipid II-containing LUVs titrated into drug; type: binding; set-up: dG / dH / -TdS: unit not given here
Protocol: Isothermal titration calorimetry
For isothermal titration calorimetry (ITC) measurements large unilamellar vesicles (LUVs) containing lysine-lipid II were prepared by incorporating 2 mol% of lysine-lipid II in DOPC from the stock solution. The lipids were dried under a nitrogen stream and hydrated with buffer (20 mM HEPES and 50 mM NaCl, pH 7) to a lipid-phosphate concentration of 20 mM. Finally, unilamellar vesicles were obtained after ten rounds of extrusion through 200-nm membrane filters (Whatman Nuclepore, Track-Etch Membranes). ITC experiments were performed with the Affinity ITC (TA Instruments-Waters LLC) to determine interaction between LUVs and teixobactin. […] The samples were degassed before use. […] The number of injections was 23. Experiments were performed at 37 °C and analysed using the Nano Analyze Software (TA instruments-Water LLC). All experiments were performed in triplicates. Control experiments were performed with lipid II-free DOPC LUVs. The independent model was used to determine the interaction between teixobactin and lipid II. ITC data of R4L10-teixobactin were previously published.

[2] = Static 31P ssNMR: membrane perturbation; details: lipid II-doped DOPC large unilamellar vesicles
S. simulans = assay: MIC, S. simulans (given with permeabilization assay concentrations); type: cell-based; details: S. simulans
Staphylococcus simulans = assay: Sytox green membrane damage assay, S. simulans; type: cell-based
Protocol: The bacterial cultures were grown overnight at 30 °C in TSB media for S. simulans and at 37 °C in LB medium for Bacillus subtilis. Secondary cultures were grown for 3 h until OD600 = 0.5 was reached. The bacterial cells were then centrifuged at 1,500g for 10 min at 4 °C and washed twice with 10 ml of buffer (10 mM Tris, 100 mM NaCl, 1 mM MgCl2 and 0.5% glucose, pH 7.2). The bacterial cells were resuspended to an OD600 = 10 in the buffer and used for the experiment. […] For the assay, 1 μl of the bacterial suspension was added to 1 ml of buffer. For the ion leakage assays, 1 μl of the DiSC-2 probe from a 1 mM stock was added to the cuvette and the fluorescence was measured between a wavelength of 650 nm and 670 nm (bandwidth of […]) for 2 min before the addition of the antibiotic and 6 min after. For the Sytox green leakage assays, 1 μl of the Sytox green probe from a 0.25 mM stock was added to the cuvette and the fluorescence was measured between a wavelength of 500 nm and 520 nm (bandwidth of […]) for 2 min before the addition of the antibiotic and 6 min after. All experiments were performed in triplicates.

[3] = 15N T1rho ssNMR relaxation of lipid II-bound teixobactin; details: 60 kHz MAS, in membranes
Source text: (§1) T1rho trajectories were fit to single exponentials.

[4] = for interaction with lipid II moieties (in words): ssNMR, DOPC liposomes with 4 mol% lysine-lipid II, pH 7.2
Protocol: Multi-lamellar vesicles of DOPC doped with 4 mol% lysine-lipid II in buffer (40 mM Na2PO4 and 25 mM NaCl, pH 7.2) were collected by centrifugation (60,000g) and loaded into ssNMR rotors. […] For 1.3-mm rotors, samples contained 200 nmol of antibiotic for unlabelled lipid II.
^1H-detected ssNMR experiments were performed at 60 kHz magic angle spinning (MAS) using magnetic fields of 700 and 950 MHz (^1H frequency). […] T1rho trajectories were fit to single exponentials. 2D CC experiments were acquired with PARISxy[33],[53] recoupling (m = 1) at 950 MHz magnetic field and 18 kHz MAS. A 2D CαN experiment was acquired at 700 MHz, 12 kHz MAS and 5 ms N to C cross-polarization transfer time. […] The scalar TOBSY[35] experiment was acquired at 700 MHz using 8 kHz MAS with 6 ms CC mixing time. The mobility edited H(H)C experiment[25] was measured at 700 MHz with 16.5 kHz MAS at a temperature of 300 K using a T2 relaxation filter of 2.5 ms. 1D MAS ^31P experiments were acquired at 500 MHz magnetic field and 12 kHz MAS. 2D HP experiments were acquired at 800 MHz and 60 kHz MAS using 1 and 2 ms ^1H to ^31P cross-polarization contact time. Static ^31P ssNMR experiments were acquired at 500 MHz magnetic field without sample spinning.

[5] = Mobility-edited H(H)C ssNMR: membrane topology of lipid II-bound teixobactin; details: 300 K, T2 filter 2.5 ms
Source text: as §1
Extended Data Fig. 8 The membrane topology of the complex. a) and b) show mobility-edited (‘T2-filtered’) ^1H(^1H)^13C ssNMR experiments[37] of ^13C,^15N-teixobactin bound to Lipid II. […] For each residue, peak areas were integrated using Topspin 4.06. Signals that were used for the integration are annotated. e) Membrane topology visualized with the ssNMR structure. Hydrophilic (in blue) and hydrophobic (brown) residues are sharply separated above and below the β-sheet, respectively. Note that the N-terminal Phe1 at the rim of the β-sheet has higher water accessibility, potentially because of fraying and mobility effects. f) Normalized contacts to water and lipid-tails, back-calculated over the MD simulation based on our ssNMR structure. g) Membrane topology using a different structure of the calculated ssNMR ensemble. As shown in Extended Data Fig. 9a, the despi-cycle is plastic and can point up towards the water phase, bringing End10 well-above the membrane-plane. Source data

[6] = Scalar TOBSY ssNMR: mobility of the lipid II pentapeptide in the complex; type: binding; details: 8 kHz MAS, 300 K, compared with R4L10-teixobactin
Source text: as §1
Interfacial contacts are labelled in green. Lipid II pentapeptide signals are marked with an asterisk, e.g., A1*αβ. b) Zoom into the spectrum acquired with 300 ms magnetization transfer. […] The spectrum is based on a scalar 2D ^13C^13C TOBSY[35] ssNMR experiment with the complex formed by ^13C,^15N-teixobactin and ^13C,^15N-Lipid II in liposomes acquired at 950 MHz, 8 kHz MAS, and 300 K temperature. Teixobactin and the Lipid II sugars are not visible in the spectrum (cyan). Conversely, the last three residues (Lys3-Ala4-Ala5) of the Lipid II pentapeptide give scalar signals indicating high mobility and no involvement in complex formation. […] Likewise, the K3αγ signal of the third pentapeptide residue was only visible for R4L10-teixobactin. […] All experiments were performed in triplicates. All the parameter values are shown as mean +/− SD.

[7] = source data Figure 3e, ITC, Avg of Expt 1-3
[8] = source data Figure 3e, ITC, Expt 1
[9] = source data Figure 3e, ITC, Expt 2
[10] = source data Figure 3e, ITC, Expt 3

## teixobactin
[1]; ITC, DOPC LUVs with 2 mol% lysine-lipid II, 20 mM HEPES 50 mM NaCl pH 7, 30 μM drug, 37 °C, mean of three experiments, b18 prints ± 0.008
  pKd: 7.10
[1]; source data Figure 3e, ITC pH 7, 37 °C, Expt 1
  pKd: 7.17
[1]; source data Figure 3e, ITC pH 7, 37 °C, Expt 2
  pKd: 7.04
[1]; source data Figure 3e, ITC pH 7, 37 °C, Expt 3
  pKd: 7.16
[1]; [7]
  dG: -42.29
  dH: -35.03
[1]; [8]
  dG: -42.58
  dH: -34.03
[1]; [9]
  dG: -41.78
  dH: -37.92
[1]; [10]
  dG: -42.52
  dH: -33.14
[1]; source data Figure 3e, ITC, Plot, avg
  -TdS: -7.26
[2]
  membrane perturbation by static 31P ssNMR (in words): incubation with teixobactin markedly changed the signal
S. simulans
  concentration stated as 1× MIC: 0.5 µM
Staphylococcus simulans; Sytox green, Gram-positive bacteria, 20 °C, pH 7.2, 2 min before and 6 min after antibiotic, triplicates
  membrane damage, Sytox green (in words): Although less pronounced than for nisin, teixobactin also showed clear effects with Sytox green
Staphylococcus simulans; intact bacteria, DiSC / Sytox green assays
  time of membrane defects in intact bacteria: ≤ 10 min
[3]
  overall dynamics in the complex (in words): The overall dynamics of the molecule is very slow
[4]; 2D 13C13C PARISxy, 13C,15N-teixobactin and 13C,15N-lipid II in DOPC liposomes
  number of interfacial End10–MurNAc ssNMR contacts: 11
[4]; listed as Teixobactin
  interaction with lipid II moieties (in words): did not bind to the pentapeptide of lipid II
[4]; listed as natural teixobactin
  interaction with lipid II moieties (in words): tight and specific interactions
[5]
  membrane topology (in words): localizes at the water–membrane interface with the hydrophobic residues Ile2, Ile5 and Ile6 partitioned in the bilayer
[6]
  rigidity of lipid II pentapeptide in the complex (in words): the pentapeptide is more rigid in the complex with teixobactin than with R4L10-teixobactin
